This is an account of results in US8716326B2, “Isoindolinone derivatives, preparation method thereof and a pharmaceutical composition comprising same” (Korea Research Institute of Chemical Technology, priority 2009, dated 2014).

The subject of assay [1] is mice calvarias. Briefly: Mice calvarias loss inhibition, bone loss induced by interleukin-1 in vivo. To be noted: IL-1 collagen sponge, 0.2 mg per mouse intraperitoneally, 7 days, vs vehicle. Here is the method: Specifically, 5 to 7 ml of collagen (Cellmatrix type I-A; Wako co., Japan, Cat. No. 637-00653) was poured into petri dish (60×15 mm), and lyophlilized. The lyophlilized collagen sponge was made to the desired size which is appropriate to be implanted, and in order to induce local bone loss of mice, interleukin-1 (Peprotech; London, GB) was diluted with phosphate-buffered-saline solution to 2 μg per one mouse to be treated onto collagen sponge. The collagen sponge treated with interleukin-1 was contacted to the surface of mice carvarias through mice scalp incision, was implanted to 5 mice (5-week-male, ICR strain) in the test group and the control group, respectively, and was sutured. 7 days later, the mice were sacrificed to obtain calvarias. The test group was intraperitoneally injected with the dose of 0.2 mg of the compound obtained in Example 8 per one mouse from the next day of surgery to the day before the sacrifice. The control group was intraperitoneally injected with 100 μl of DMSO. After 7 days, the mice were sacrificed, and the extracted calvarias were washed 3-4 times with phosphate-buffered-saline solution and fixed in 4% paraformaldehyde for 24 hrs. Micro-computed tomography scan (SMX-90CT; Shimadzu, Japan) was performed for the fixed mice calvarias and 3-dimensional image thereof was obtained.
Further, bone mineral content (BMC) was measured by using TRI 3D-BON (RATOC system Engineering Co., Tokyo, Japan) based on the 3-dimensional image (see Volume Graphics, VG studio Max 1.2.1).
Histological studies were conducted in order to investigate the number of osteoclastic cells directly relating to bone loss. Specifically, the calvarias were decalcificated (solution was replaced every 2-3 days) with 12% EDTA (pH 7.2-7.4) for 14 days and embedded in paraffin. TRAP staining (Sigma-Aldrich) was performed on the embedded whole calvarias.
In addition, the whole area of osteoclast which is red-stained, that is, TRAP-positive was shown in graph by using image J program.
The procedure of the Experimental Example 3 was repeated except for using the compound obtained in Example 94 instead of the compound obtained in Example 8, to examine the effect on mice calvarias loss inhibition.
Histological studies were conducted in order to investigate the number of osteoclastic cells directly relating to bone loss. Specifically, the calvarias were decalcificated (solution was replaced every 2-3 days) with 12% EDTA (pH 7.2-7.4) for 14 days and embedded in paraffin.
H-E (Hematotoxin-eosin) and TRAP staining (Sigma-Aldrich) were performed on the embedded whole calvarias. The results are given in FIGS. 4b and 4c, respectively. In addition, the whole area of osteoclast of the test and control group was shown in graph by using image J program.

For assay [2], the system named is Runx2. Briefly: Runx2 activity, 6xOSE2-Luc luciferase reporter in transfected C2C12 cells. As to conditions: Mus musculus, 24 hrs, read-out: luciferase activity relative to control set as 1. It is filed as cell-based, Mouse. In short, it runs like this:
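C2C12 mouse premyoblasts carrying the 6xOSE2-Luc reporter (six tandem Runx2-binding OSE2 sites in pGL3) switched to 5% FBS DMEM after 24 h and treated with compound at 2.5, 5.0, 10 or 20 μM. After 24 h, lysate luciferase measured by dual-luciferase assay, expressed relative to DMSO vehicle set as 1.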
On the technique in general: Reporter assays use an easily measured gene product as a stand-in for the process of interest.

Assay [3] relates to rats calvarias. Briefly: Bone formation in rats calvarias loss site in vivo. To be noted: 8 mm calvarias hole, vs control. The method, then: To investigate the effect of the amide compound according to the present invention on bone formation, bone formation ability of the said compound in the rats calvarias loss site was examined in vivo by using the compounds obtained in Example 8 and 27.
Specifically, the hole of the diameter of 8 mm was made in calavarias of rats by using trephine bur, and the collagen sponge prepared in Experimental Example 3 treated with 0.2 mg of the compound obtained in Example 8 in 15 μl of DMSO was placed at the site of loss. As a control group, the collagen sponge treated with only 100 μl of DMSO was treated at the site of loss. After 6 days from the suture of the calvarias scalp, the rats were sacrificed to obtain calvarias. Micro-computed tomography scan (SMX-90CT; Shimadzu, Japan) was performed and 3-dimensional image thereof was obtained.
Further, bone mineral content (BMC) of the test and control group was measured by using TRI 3D-BON (RATOC system Engineering Co., Tokyo, JP) based on the 3-dimensional image (see, Volume Graphics, VG studio Max 1.2.1). […]
Further, bone mineral content (BMC) of the test and control group was measured by using TRI 3D-BON (RATOC system Engineering Co., Tokyo, JP) based on the 3-dimensional image.

For `COc1cc2c(c(-c3cncnc3)c1OC)CN(Cc1ccc(C(=O)Nc3ccccc3N)cc1)C2=O` [Example 8, N-(2-aminophenyl)-4-((5,6-dimethoxy-1-oxo-4-(pyrimidin-5-yl)isoindolin-2-yl)methyl)benzamide], in assay [1], the “bone loss in calvarias (micro-computed tomography)” value was “suppressed”, the “osteoclast (TRAP-positive area)” value is reported as “remarkably reduced” and the “whole bone mineral content (BMC)” value was “increased”. In assay [2], the fold induction at 2.5 µM was 28.5, the fold induction at 5 µM was 33.4, the fold induction at 10 µM came to 36 and the fold induction at 20 µM was found to be 30.1. Besides, the “BMC (bone content)” value in assay [3] (collagen sponge with 0.2 mg compound) is reported as “unexpectedly increased”.
Turning to `Cc1cc(C(=O)NCCCCCC(=O)Nc2ccccc2N)ccc1-c1cncnc1` [Example 90, N-(5-(2-aminophenylcarbamoyl)pentyl)-3-methyl-4-(5-pyrimidinyl)-benzamide], in assay [2], the fold induction at 2.5 µM is 1.7, the fold induction at 5 µM came to 3.7, the fold induction at 10 µM was found to be 9.5 and the fold induction at 20 µM was determined as 22.1.
Taken in the same sequence, the figures for `Cc1cc(C)cc(-c2ccc(C(=O)NCCCCCC(=O)Nc3ccccc3N)cc2C)c1` [Example 91, N-(5-(2-aminophenylcarbamoyl)pentyl)-3-methyl-4-(3,5-dimethylphenyl)-benzamide] were 1.1, 1.5, 2.9 and 3.9.
Taken in the same sequence, the figures for `Cc1c(C(=O)NCCCCCC(=O)NO)cccc1-c1ccccc1` [Example 92, N-(5-(hydroxycarbamoyl)pentyl)-2-methyl-3-phenylbenzamide] were 4.1, 8.8, 12.4 and 11.5.
Taken in the same sequence, the figures for `COc1ccc(-c2cccc(C(=O)NCCCCCC(=O)NO)c2C)c(OC)c1` [Example 93, N-(5-(hydroxycarbamoyl)pentyl)-2-methyl-3-(2,4-dimethoxyphenyl)-benzamide] were 1.3, 1.9, 4.8 and 11.2.
Turning to `Cc1cc(C(=O)NCCCCCC(=O)NO)ccc1-c1ccccc1` [Example 94, N-(5-(hydroxycarbamoyl)pentyl)-3-methyl-4-phenylbenzamide], in assay [1], the “bone loss in calvarias (micro-computed tomography)” value is given as “suppressed” and the “osteoclast (TRAP-positive area)” value was “remarkably reduced”. Besides, in assay [2], the fold induction at 2.5 µM was found to be 1.6, the fold induction at 5 µM was determined as 3.4, the fold induction at 10 µM amounted to 7.5 and the fold induction at 20 µM was found to be 10.7. For the same compound, in assay [3] (collagen sponge with 0.2 mg or 0.5 mg compound), the “BMC (bone content)” value is “unexpectedly increased”.
